# Experimental data: US20240409556A1, “BENZOPIPERAZINE AND RELATED ANALOGS FOR INHIBITING YAP/TAZ-TEAD” (Springworks Therapeutics, Inc., priority 2023, published 2024)
# pIC50: −log10 of the molar value.
# System: YAP/TAZ-TEAD transcription
# Assay: Reporter gene assay for measuring the inhibition of YAP/TAZ-TEAD transcription (TEAD-responsive element luciferase reporter in Hek293T cells)
# Assay type: cell-based
# Conditions: 24 hours incubation
# Method: Example 56: Activity of Compounds of the Disclosure in a Reporter Gene Assay for Measuring the Inhibition of YAP/TAZ-TEAD Transcription
# Hek293T cells were cultured in DMEM supplemented with 10% fetal bovine serum, Sodium pyruvate, Sodium bicarbonate, L-glutamine. The cells were harvested and transiently transfected with TEAD-responsive element luciferase reporter. Transfected cells were plated in 384-well plate containing pre-diluted compounds. After 24 hours incubation at 37° C./5% CO2, assay plates were cooled to room temperature and levelled to an equal volume per well, prior to the addition of 25 uL luciferase substrate SteadyLite (Perkin Elmer)/well. The plate was shaken for 10 min at 600 rpm, centrifuged for 1 min at 500 rpm and measured with an Envision reader (PerkinElmer). The amount of relative light units produced by the TEAD reporter was used to calculate the percentage of inhibition.
# The percent of reporter inhibition was calculated in the presence of a positive control inhibitor (100% inhibition) versus a condition with the presence of the vehicle basal activity of the reporter (0% inhibition). The ability of a test compound to inhibit this activity was determined as: Percentage inhibition=[[…]((RLU determined in the presence of vehicle−RLU determined for sample with test compound present) divided by (RLU determined in the presence of vehicle−RLU determined for sample with positive control inhibitor))]*100.
# The activities of example compounds tested are depicted in Table 3. The activity ranges A, B and C refer to IC50 values in the reporter gene assay as follows: “A”: IC50<1 μM; “B”: 1 μM≤IC50≤10 μM and “C”: IC50>10 μM; NT=not tested.
row,Structure (SMILES),pIC50
1,"C=CC(=O)N1CCN2C(C1)CN(c1ccc(C(F)(F)F)cc1)C1CCC12 (single isomer, unassigned) [42(Dia2), 1-(3-(4-(trifluoromethyl)phenyl)decahydro-6H-cyclobuta[e]pyrazino[1,2-a]pyrazin-6-yl)prop-2-en-1-one]",> 6.00
2,"FC(F)(F)c1ccc(N2CC3CC(c4nnn[nH]4)CCN3c3ccccc32)cc1 (single isomer, unassigned) [121-D2, 8-(1H-tetrazol-5-yl)-5-(4-(trifluoromethyl)phenyl)-6,6a,7,8,9,10-hexahydro-5H-pyrido[1,2-a]quinoxaline]",> 6.00
3,"CC(=O)N1CCN2c3ncccc3N(c3ccc(C(F)(F)F)cn3)CC2C1 (stereo not shown) [53-En2, 1-(5-(5-(trifluoromethyl)pyridin-2-yl)-5,6,6a,7,9,10-hexahydro-8H-pyrazino[1,2-a]pyrido[3,2-e]pyrazin-8-yl)ethan-1-one]",< 5.00
4,"CNS(=O)(=O)N1CCN2c3ccccc3N(c3ccc(C(F)(F)F)cc3)CC2C1 (single isomer, unassigned) [32-En1, (R)- or (S)-N-methyl-6-(4-(trifluoromethyl)phenyl)-1,2,4,4a,5,6-hexahydro-3H-pyrazino[1,2-a]quinoxaline-3-sulfonamide]",> 6.00
5,"FC(F)(F)c1ccc(N2CC3CC(c4nnn[nH]4)CCN3c3ccccc32)cc1 (single isomer, unassigned) [121-D4, 8-(1H-tetrazol-5-yl)-5-(4-(trifluoromethyl)phenyl)-6,6a,7,8,9,10-hexahydro-5H-pyrido[1,2-a]quinoxaline]",> 6.00
6,"CC1(C(=O)O)CCN2c3ccccc3N(c3ccc(C(F)(F)F)cc3)CC2C1 [115-D2, (6aS,8S)— or (6aR,8S)— or (6aR,8R)— or (6aS,8R)-8-methyl-5-(4-(trifluoromethyl)phenyl)-6,6a,7,8,9,10-hexahydro-5H-pyrido[1,2-a]quinoxaline-8-carboxylic acid]",> 6.00

# The next lines start with the values.
row,pIC50,Structure (SMILES)
1,> 6.00,"CC(=O)NCC1CN(c2ccc(C(F)(F)F)cc2)c2ccc(C3CC3)nc2O1 (stereo not shown) [compound 81, N-((6-cyclopropyl-1-(4-(trifluoromethyl)phenyl)-2,3-dihydro-1H-pyrido[2,3-b][1,4]oxazin-3-yl)methyl)acetamide]"
2,> 6.00,"CC(C)C(=O)N1CCN2c3ncccc3N(c3ccc(C(F)(F)F)cc3)CC2C1 (single isomer, unassigned) [47-En2, (R)- or (S)-2-methyl-1-(5-(4-(trifluoromethyl)phenyl)-5,6,6a,7,9,10-hexahydro-8H-pyrazino[1,2-a]pyrido[3,2-e]pyrazin-8-yl)propan-1-one]"

# Same assay, conditions: Homo sapiens, HEK-293T, 24 h, 24 hours incubation
row,Structure (SMILES),pIC50
1,"FC(F)(F)c1ccc(N2CCN(Cc3cnco3)c3ccccc32)cc1 [compound 67, 5-((4-(4-(trifluoromethyl)phenyl)-3,4-dihydroquinoxalin-1(2H)-yl)methyl)oxazole]",> 6.00
2,"C=CC(=O)N1CC2CN(c3ccc(C(F)(F)F)cc3)c3ccccc3N2CC1C(=O)O (stereo not drawn) [compound 88, (cis)- or (trans)-3-acryloyl-6-(4-(trifluoromethyl)phenyl)-2,3,4,4a,5,6-hexahydro-1H-pyrazino[1,2-a]quinoxaline-2-carboxylic acid]",> 6.00
3,"O=C(O)C1CCN(c2ccccc2Nc2ccc(C(F)(F)F)cc2)C(=O)C1 (stereo not shown) [compound 119, 2-oxo-1-(2-((4-(trifluoromethyl)phenyl)amino)phenyl)piperidine-4-carboxylic acid]",< 5.00
4,"CC(=O)NCC1CN(c2ccc(C(F)(F)F)cc2)c2cccnc2O1 (stereo not shown) [compound 49, N-((1-(4-(trifluoromethyl)phenyl)-2,3-dihydro-1H-pyrido[2,3-b][1,4]oxazin-3-yl)methyl)acetamide]",> 6.00
5,"C=CC(=O)NCC1CN(c2ccc(C(F)(F)F)cc2)c2ccccc2N1C(C)=O (stereo not shown) [compound 18, N-((1-acetyl-4-(4-(trifluoromethyl)phenyl)-1,2,3,4-tetrahydroquinoxalin-2-yl)methyl)acrylamide]",5.00 to 6.00
6,"NC(=O)C1CCN2c3ccccc3N(c3ccc(C(F)(F)F)cc3)CC2C1 (stereo not drawn) [117B-En1, (cis)- or (trans)-5-(4-(trifluoromethyl)phenyl)-6,6a,7,8,9,10-hexahydro-5H-pyrido[1,2-a]quinoxaline-8-carboxamide]",> 6.00
7,"Cc1nnc(N2CCN3c4ccccc4N(c4ccc(C(F)(F)F)cc4)CC3C2)o1 (stereo not shown) [compound 24, 2-methyl-5-(6-(4-(trifluoromethyl)phenyl)-1,2,4,4a,5,6-hexahydro-3H-pyrazino[1,2-a]quinoxalin-3-yl)-1,3,4-oxadiazole]",< 5.00
8,"Cc1nc[nH]c1CN1CCN(c2ccc(C(F)(F)F)cc2)c2ccccc21 [compound 66, 1-((4-methyl-1H-imidazol-5-yl)methyl)-4-(4-(trifluoromethyl)phenyl)-1,2,3,4-tetrahydroquinoxaline]",> 6.00
9,"O=C(O)C1CCN(c2ccccc2Nc2ccc(C(F)(F)F)cc2)CC1 [compound 111, 1-(2-((4-(trifluoromethyl)phenyl)amino)phenyl)piperidine-4-carboxylic acid]",> 6.00
10,"O=C(O)C1(O)CCN2c3ccccc3N(c3ccc(C(F)(F)F)cc3)CC2C1 (stereo not drawn) [126A, (cis)- or (trans)-8-hydroxy-5-(4-(trifluoromethyl)phenyl)-6,6a,7,8,9,10-hexahydro-5H-pyrido[1,2-a]quinoxaline-8-carboxylic acid]",> 6.00
11,"C=CC(=O)NCC1CN(c2ccc(C(F)(F)F)cc2)c2cccnc2O1 (stereo not shown) [compound 48, N-((1-(4-(trifluoromethyl)phenyl)-2,3-dihydro-1H-pyrido[2,3-b][1,4]oxazin-3-yl)methyl)acrylamide]",> 6.00

# Second part, the compound after the results:
row,pIC50,Structure (SMILES)
1,> 6.00,"C[C@@H](O)C(=O)N[C@@H]1C[C@@H]2CN(c3ccc(C(F)(F)F)cc3)c3cccnc3N2C1 [109-En1, (R)-2-hydroxy-N-((6aR,8R)-5-(4-(trifluoromethyl)phenyl)-5,6,6a,7,8,9-hexahydropyrido[3,2-e]pyrrolo[1,2-a]pyrazin-8-yl)propanamide]"
2,> 6.00,"C=CC(=O)N1CCN2c3ncccc3N(c3ccc(C(F)(F)F)cc3)CC2C1 (stereo not shown) [28-En1, 1-(5-(4-(trifluoromethyl)phenyl)-5,6,6a,7,9,10-hexahydro-8H-pyrazino[1,2-a]pyrido[3,2-e]pyrazin-8-yl)prop-2-en-1-one]"
3,< 5.00,"N#C[C@@H]1C[C@@H]2CN(c3ccc(C(F)(F)F)cc3)c3cccnc3N2C1 [compound 103, (6aR,8R)-5-(4-(trifluoromethyl)phenyl)-5,6,6a,7,8,9-hexahydropyrido[3,2-e]pyrrolo[1,2-a]pyrazine-8-carbonitrile]"
4,> 6.00,"O=C(O)C1CCN2c3ncc(Cl)cc3N(c3ccc(C(F)(F)F)cc3)CC2C1 (stereo not drawn) [100A, (cis)- or (trans)-3-chloro-5-(4-(trifluoromethyl)phenyl)-6,6a,7,8,9,10-hexahydro-5H-dipyrido[1,2-a:3′,2′-e]pyrazine-8-carboxylic acid]"
5,> 6.00,"CC(=O)N[C@@H]1C[C@@H]2CN(c3ccc(C(F)(F)F)cc3)c3cc(C)cnc3N2C1 [compound 93, N-((6aR,8R)-3-methyl-5-(4-(trifluoromethyl)phenyl)-5,6,6a,7,8,9-hexahydropyrido[3,2-e]pyrrolo[1,2-a]pyrazin-8-yl)acetamide]"
6,> 6.00,"CC(=O)N[C@@H]1C[C@@H]2CN(c3ccc(C(F)(F)F)cc3)c3cc(Cl)cnc3N2C1 [compound 98, N-((6aR,8R)-3-chloro-5-(4-(trifluoromethyl)phenyl)-5,6,6a,7,8,9-hexahydropyrido[3,2-e]pyrrolo[1,2-a]pyrazin-8-yl)acetamide]"
